This note sets out measurements from patent publication US10689377B2 (Mirati Therapeutics, Inc., priority 2017, dated 2020).

As usually defined, the IC50 is the concentration at which inhibition is half-maximal.

For assay [1], the target named is KRas G12C (Homo sapiens, UniProt P01116, C118S/C51S/C80L/G12C). As to the kind of experiment: KRas G12C Modification Assay (LCMS detection of covalent adduct). Type of assay: binding. The following applies: normalized percent of control; 5 μM concentration for 3 hours. The method in brief:
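Intact protein analysed by LC/MS with deconvolution; unmodified protein signal normalized to no-compound control and reported as percent of control (POC).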

Assay [2] concerns the target KRas G12C (Homo sapiens, UniProt P01116, G12C). As to the kind of experiment: Cellular inhibition of KRas G12C measured by Phospho-ERK in NCI-H358 cells. Type of assay: cell-based. Particulars: pERK(Thr202/Tyr204) normalized with GAPDH, NCI-H358 cells, 3 hours; read-out: IC50. A digest of the protocol:
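NCI-H358 cells treated 3 h with compound (0.5% DMSO final), then fixed and methanol-permeabilised. In-cell immunofluorescence measured pERK(Thr202/Tyr204) normalised to GAPDH as percent of DMSO control. IC50 from a 4-parameter dose-response fit.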

Turning to `C=C(F)C(=O)N1CCN(c2nc(OC[C@@H]3CCCN3C)nc3c2CCN(c2cccc4ccnc(C)c24)C3)C[C@@H]1CC#N` [Example 592], the POC entry in assay [1] is “C (“C”>50% POC)”. In assay [2], the IC50 was above 1 µM.

As for `C=CC(=O)N1CCN(c2nc(OC[C@H]3CCCN3C)nc3c2CCN(c2cccc4ccccc24)C3)CC1CC#N` (stereo partly drawn) [Example 183, 2-[4-[2-[[(2R)-1-methylpyrrolidin-2-yl]methoxy]-7-(1-naphthyl)-6,8-dihydro-5H-pyrido[3,4-d]pyrimidin-4-yl]-1-prop-2-enoyl-piperazin-2-yl]acetonitrile], the POC result in assay [1] is “C (“C”>50% POC)”. Further, the IC50 in assay [2] lay in the range of 0.0001 to 1 µM.

For `C=CC(=O)N1CCN(c2nc(OCCCN3CCOCC3)nc3c2CCN(c2c(C(F)(F)F)ccc4[nH]ncc24)C3)CC1` [Example 180, 1-[4-[2-(3-morpholinopropoxy)-7-[5-(trifluoromethyl)-1H-indazol-4-yl]-6,8-dihydro-5H-pyrido[3,4-d]pyrimidin-4-yl]piperazin-1-yl]prop-2-en-1-one], the POC entry in assay [1] is listed as “C (“C”>50% POC)”. In addition, in assay [2], the IC50 was in the range of 0.0001 to 1 µM.

As to `C=C(F)C(=O)N1CCN(c2nc(OC[C@@H]3CCCN3C)nc3c2CCN(c2cc(O)cc4ccccc24)C3)C[C@@H]1CC#N` [Example 556, 2-[(2S)-1-(2-Fluoroprop-2-enoyl)-4-[7-(3-hydroxy-1-naphthyl)-2-[[(2S)-1-methylpyrrolidin-2-yl]methoxy]-6,8-dihydro-5H-pyrido[3,4-d]pyrimidin-4-yl]piperazin-2-yl]acetonitrile], in assay [1], the POC result is “C (“C”>50% POC)”. In assay [2], the IC50 was in the range of 0.0001 to 1 µM.

`C=C(F)C(=O)N1CCN(c2nc(OC[C@@H]3CCCN3C)nc3c2CCN(c2cncc4cccc(Cl)c24)C3)C[C@@H]1CC#N` [Example 593, 2-((S)-4-(7-(5-Chloroisoquinolin-4-yl)-2-(((S)-1-methylpyrrolidin-2-yl)methoxy)-5,6,7,8-tetrahydropyrido[3,4-d]pyrimidin-4-yl)-1-(2-fluoroacryloyl)piperazin-2-yl)acetonitrile]: in assay [1], the POC entry was “C (“C”>50% POC)”. In assay [2], the IC50 fell in the range of 0.0001 to 1 µM.

On to `C=C(F)C(=O)N1CCN(c2nc(OC[C@@H]3CCCN3C)nc3c2CCN(c2cccc4cccc(CO)c24)C3)C[C@@H]1CC#N` [Example 567, 2-[(2S)-1-(2-Fluoroprop-2-enoyl)-4-[7-[8-(hydroxymethyl)-1-naphthyl]-2-[[(2S)-1-methylpyrrolidin-2-yl]methoxy]-6,8-dihydro-5H-pyrido[3,4-d]pyrimidin-4-yl]piperazin-2-yl]acetonitrile], for which the POC entry in assay [1] is “C (“C”>50% POC)”. Further, in assay [2], the IC50 is above 1 µM.

Consider `C=CC(=O)N1CCN(c2nc(OC[C@@H]3CCCN3C)nc3c2CCN(c2ccccc2C(C)C)C3)CC1` [Example 158, 1-[4-[7-(2-isopropylphenyl)-2-[[(2S)-1-methylpyrrolidin-2-yl]methoxy]-6,8-dihydro-5H-pyrido[3,4-d]pyrimidin-4-yl]piperazin-1-yl]prop-2-en-1-one], for which the POC entry in assay [1] was “C (“C”>50% POC)”. For the same compound, in assay [2], the IC50 was above 1 µM.

As to `C=CC(=O)N1CCN(c2nc(OC[C@@H]3CCCN3C)nc3c2CCN(c2c(C)c(C)cc4[nH]ncc24)C3)C[C@@H]1CC#N` [Example 462, 2-[(2S)-4-[7-(5,6-dimethyl-1H-indazol-4-yl)-2-[[(2S)-1-methylpyrrolidin-2-yl]methoxy]-6,8-dihydro-5H-pyrido[3,4-d]pyrimidin-4-yl]-1-prop-2-enoyl-piperazin-2-yl]acetonitrile], the POC entry in assay [1] was “C (“C”>50% POC)”. Moreover, the IC50 in assay [2] is 0.0001 to 1 µM.

`C=C(F)C(=O)N1CCN(c2nc(OC[C@@H]3CCN(C)C3)nc3c2CCN(c2cccc4cccc(Cl)c24)C3)C[C@@H]1CC#N` [Example 575, 2-[(2S)-4-[7-(8-Chloro-1-naphthyl)-2-[[(3R)-1-methylpyrrolidin-3-yl]methoxy]-6,8-dihydro-5H-pyrido[3,4-d]pyrimidin-4-yl]-1-(2-fluoroprop-2-enoyl)piperazin-2-yl]acetonitrile]: in assay [1], the POC entry is “C (“C”>50% POC)”. For the same compound, in assay [2], the IC50 is 0.0001 to 1 µM.
